# Test results from US20090286839A1, “PHYTONUTRIENT COMPOSITIONS FROM MUSHROOMS OR FILAMENTOUS FUNGI AND METHODS OF USE” (priority 2006, published 2009).
# Key:
# [1] = Hydrophilic ORACFL assay (ORAChydro); format: biochemical; conditions: pure ERG
# Excerpt: The lipophilic ORACFL assay (ORAClipo) was based on a previous reported method. Hydrophilic ORACFL assay (ORAChydro) was based on a previous reported method. All data was expressed as micromoles of Trolox equivalents (TE) per gram of dry weight (μmol TE/g dw). The freeze-dried forms of the mushrooms were used for testing and the data was reported as dry weight. When reporting amount per serving, the data was converted to a fresh weight basis according to the dry weight of the fresh mushroom samples. For each analysis, triplicate extractions were performed from one crop and used for analysis. ORACtotal was determined by calculating the sum of ORAClipo and ORAChydro results.
# [2] = Hydroxyl radical averting capacity (HORAC) assay; format: biochemical; conditions: pure ERG
# Excerpt: The HORAC assay was based on a previously reported method, however caffeic acid (CA) was used as the standard due to CA providing a wider linear range as compared to gallic acid. All data was expressed as micromoles of caffeic acid equivalents (CAE) equivalents per gram of dry weight (μmol CAE/g dw). The freeze-dried forms of the mushrooms were used for testing and the data was reported as dry weight. When reporting amount per serving, the data was converted to a fresh weight basis according to the dry weight of the fresh mushroom samples. For each analysis, triplicate extractions were performed from one crop and used for analysis.
# HO. radicals are highly reactive and can be generated via the Fenton reaction. Due to the fact that HO. radicals are short lived with a high rate constant, it is unlikely that antioxidants present at biological concentrations will be able to scavenge the HO radical. However antioxidants, which are able to act as metal chelators, may be able to prevent the formation of the HO. radical, thus acting as a preventative antioxidant. The HORAC assays measures the ability of the antioxidant present to chelate Co(II) prior to the Fenton reaction cocurring. HORAC values ranged between 3.0-13.6 μmole CAE/g dw. There was a significant difference found within the different A. bisporus mushrooms. […]
# [3] = Peroxynitrite radical averting capacity (NORAC) assay; format: biochemical; conditions: pure ERG
# Method: The NORAC assay was modified on a previously reported method. All data was expressed as micromoles of Trolox equivalents (TE) equivalents per gram of dry weight (μmol of TE/g dw). The freeze-dried forms of the mushrooms were used for testing and then the data was converted to a FW basis according to the dry weight of the fresh mushroom samples, which were obtained from one crop. For each analysis, triplicate extractions were performed and used for analysis.
# Under physiological conditions, the formation of ONOO^− can easily result due to the cellular production and interaction of nitric oxide and superoxide radicals. Damage to protein, especially aromatic compounds can result from ONOO^−. A limited number of papers have been published regarding the antioxidant capacity against ONOO^−. The NORAC assay is a relatively new assay. SIN-1 is used in the NORAC assay, which when heated decomposes to produce ONOO^−. DHR-123 (non-fluorescent) is used as the probe, which becomes oxidized by the presence of ONOO^− to become rhodamine 123 (fluoresces). If antioxidants present in the sample are able to scavenge ONOO^−, a delay in fluorescence will occur due to the protection of the probe offered by the antioxidant. Generally, compounds that can scavenge ONOO^− will provide high NORAC values. […]
# [4] = Super-oxide radical averting capacity (SORAC) assay; format: biochemical; conditions: pure ERG
# Excerpt: SORAC assays were based on the previously described method by Zhao and coworkers. Simply, hydroethidine was used as a probe in measuring O2^− scavenging capacity. […] Addition of SOD inhibits the hydroethidine oxidation. All data was expressed as superoxide equivalents per gram of dry weight (kunitSOD eq/g dw). The freeze-dried forms of the mushrooms were used for testing and the data was reported as dry weight. When reporting amount per serving, the data was converted to a fresh weight basis according to the dry weight of the fresh mushroom samples. For each analysis, triplicate extractions from one crop were performed and used for analysis.
# Another biological relevant free radical is O2^− which is less reactive than HO., however O2^− does react very quickly with certain radicals, such as nitric oxide. The SORAC assay is a newly developed assay. Hydroethidine (nonfluorescent) is used as the probe, which is oxidized (fluoresces) in the presence of O2^− that is generated from a xanthine and xanthine oxidase mixture. If antioxidants present in the sample are able to scavenge O2^−, a delay in fluorescence will occur due to the protection of the probe offered by the antioxidant. Generally, compounds that can scavenge O2^− will provide high SORAC values. […]
# cortical neurons = experiment: 2% Low Serum Assay, neuronal viability by MTT method; format: cell-based, chicken
# Method: Lohman or Hisex Brown chicken one-day-old fertilized eggs were obtained and stored in a lab under appropriate conditions of 12° C. and 80% humidity. At embryonic day 0 eggs were transferred into a breeding incubatore and stored under permanent turning until embryonic day 9 at 37.8° C. and 55% humidity. For isolation of neurons 4 to 6 chicken embryos were used per experiment. Neurons were plated out and nerve cells maintained in a nutrition medium at 37° C., 97% humidity, and 5% CO2.
# Test Item (T.I.) and Reference Item (R.I.) were administered at the start of the experiments for 8 days. Neurons were maintained in the same medium without change or addition of media until the end of the experiments. During the whole culture period of 8 days cells stay in an incubator at 37° C., 97% humidity, and 5% CO2.
# From T.I.1, L-Ergothioneine a 128 mM solution was prepared in medium and directly added to the cells at the start of the experiments for a total of 8 days. […] The pellet was discarded and only from the supernatant 1.25 μl up to 160 μl/ml medium was administered. R.I.2. the neurotrophic standard NTS is a ready to use injection solution and was applied in concentrations from 1.25 μl up ro 160 μl/ml medium. The stock-solution for R.I.3, Trolox, was made in a concentration of 2 mM in PBS and the appropriate concentrations added to the cells at day 1.
# To the isolated nerve cell T.I.1 was added in a dose range of 0.5, 1, 2, 4, 8, 16, 32, 64 mM. The supernatant of R.I.1 and the ready to use injection solution of R.I.2 were applied in the concentration 1.25, 2.5, 5, 10, 20, 40, 80, 160 μl/ml medium. R.I.3 was tested in the concentrations of 1, 2, 4, 8, 16, 31.25, 62.5, 125 μM. Experiments were performed at two different days, whereby on each day two identical microplates were prepared with two to four wells per T.I. or R.I. (n=8). In this 2% cell stress assay substances were administered at start of the experiment (day 1 in vitro) for the whole experimental period that means for eight days in vitro.
# Neuronal viability of cultures was determined with the MTT-assay using a plate-reader (570 nm) as described in SOP MET009. The MTT-assay is a sensitive assay measuring the mitochondrial dehydrogenase activity in viable cells only. It is performed according to the method described by Mosmann, J. Immunol. Meth., 1983, 55-63. This assay is based on the reduction of yellow MTT (3-(4,5-dimethylthiazol-2-yl)-2,5,diphenyl tetrazolium bromide), to dark blue formazan crystals by mitochondrial dehydrogenases (succinate dehydrogenase). Since this reaction is catalyzed in living cells only the assay can be used for the quantification of cell viability.
# For the determination of cell viability MTT solution was added to each well in a final concentration of 0.5 mg/ml. After 2 hours the MTT containing medium was aspired. Cells were lysed with 3% SDS, formazan crystals dissolved in isopropanol/HCI. To estimate optical density a plate reader (Anthos HT II) was used at wavelength 570 nm. Neuronal viability is expressed as optical densities (ODs).
# [5] = cited from earlier work
# [6] = 0.5 mM, addition at 1DIV, 8 days, n=8
# [7] = 1 mM, addition at 1DIV, 8 days, n=8
# [8] = 2 mM, addition at 1DIV, 8 days, n=8
# [9] = 4 mM, addition at 1DIV, 8 days, n=8
# [10] = 8 mM, addition at 1DIV, 8 days, n=8
# [11] = 16 mM, addition at 1DIV, 8 days, n=8
# [12] = 32 mM, addition at 1DIV, 8 days, n=8
# [13] = 64 mM, addition at 1DIV, 8 days, n=8
# [14] = Lohman or Hisex Brown, chicken, 8 days
# [15] = Gallus gallus, Cortical neurone, 192 h, read-out: viability, mean in % (control is 100%)
structure (smiles),measurement,setting,value
"C[N+](C)(C)[C@@H](Cc1c[nH]c(=S)[nH]1)C(=O)[O-] [Ergo, L-ergothioneine]",ORAChydro value of ERG,[1],"6,440 μmole TE/g"
same,HORAC value of ERG,[2],231 μmole CAE/g
same,NORAC value of ERG,[3],407 μmole TE/g
same,SORAC value of ERG,[4],non-detectable
same,"viability, mean in % (control is 100%)",cortical neurons; [6],98.13%
same,"viability, mean optical density",cortical neurons; [6],0.053 OD
same,"viability, mean in % (control is 100%)",cortical neurons; [7],104.42%
same,"viability, mean optical density",cortical neurons; [7],0.057 OD
same,"viability, mean in % (control is 100%)",cortical neurons; [8],105.10%
same,"viability, mean optical density",cortical neurons; [8],0.057 OD
same,"viability, mean in % (control is 100%)",cortical neurons; [9],110.39%
same,"viability, mean optical density",cortical neurons; [9],0.060 OD
same,"viability, mean in % (control is 100%)",cortical neurons; [10],119.84%
same,"viability, mean optical density",cortical neurons; [10],0.065 OD
same,"viability, mean in % (control is 100%)",cortical neurons; [11],189.48%
same,"viability, mean optical density",cortical neurons; [11],0.103 OD
same,"viability, mean in % (control is 100%)",cortical neurons; [12],262.66%
same,"viability, mean optical density",cortical neurons; [12],0.153 OD
same,"viability, mean in % (control is 100%)",cortical neurons; [13],407.45%
same,"viability, mean optical density",cortical neurons; [13],0.221 OD
same,neuroprotective concentration range,"cortical neurons; 2% low serum, 8 days, MTT",≥ 4 mM
same,maximum neuronal viability (% of untreated control),"cortical neurons; 2% low serum, 8 days, MTT, best concentration tested",407%
same,solubility in nonpolar solvents,[5]; nonpolar solvents,insoluble
same,water soluble up to,"[5]; water, room temperature",up to 0.9 M
COc1c(O)cc2oc3cc(O)c(CC=C(C)C)c(O)c3c(=O)c2c1CC=C(C)C [Mangostin],"viability, mean optical density","cortical neurons; 1.25 μl/ml, addition at 1DIV, 8 days, n=8",0.051 OD
same,"viability, mean optical density","cortical neurons; 2.5 μl/ml, addition at 1DIV, 8 days, n=8",0.052 OD
same,"viability, mean optical density","cortical neurons; 5 μl/ml, addition at 1DIV, 8 days, n=8",0.053 OD
same,"viability, mean optical density","cortical neurons; 10 μl/ml, addition at 1DIV, 8 days, n=8",0.076 OD
same,"viability, mean optical density","cortical neurons; 20 μl/ml, addition at 1DIV, 8 days, n=8",0.064 OD
same,"viability, mean optical density","cortical neurons; 40 μl/ml, addition at 1DIV, 8 days, n=8",0.057 OD
same,"viability, mean optical density","cortical neurons; 80 μl/ml, addition at 1DIV, 8 days, n=8",0.059 OD
same,"viability, mean optical density","cortical neurons; 160 μl/ml, addition at 1DIV, 8 days, n=8",0.065 OD
same,maximum neuronal viability (% of untreated control),cortical neurons; [14],155%
same,"viability, mean in % (control is 100%)","cortical neurons; Lohman or Hisex Brown, chicken, 8 days, 1.25 μl/ml",93.86%
same,"viability, mean in % (control is 100%)","cortical neurons; Lohman or Hisex Brown, chicken, 8 days, 2.5 μl/ml",95.97%
same,"viability, mean in % (control is 100%)","cortical neurons; Lohman or Hisex Brown, chicken, 8 days, 5 μl/ml",98.32%
same,"viability, mean in % (control is 100%)","cortical neurons; Lohman or Hisex Brown, chicken, 8 days, 10 μl/ml",142.18%
same,"viability, mean in % (control is 100%)","cortical neurons; Lohman or Hisex Brown, chicken, 8 days, 20 μl/ml",155.61%
same,"viability, mean in % (control is 100%)","cortical neurons; Lohman or Hisex Brown, chicken, 8 days, 80 μl/ml",109.66%
same,"viability, mean in % (control is 100%)","cortical neurons; Lohman or Hisex Brown, chicken, 8 days, 160 μl/ml",120.33%
"Cc1c(C)c2c(c(C)c1O)CCC(C)(C(=O)O)O2 (stereo not drawn) [Trolox, 6-Hydroxy-2,5,7,8-tetramethylchroman2-carboxylic acid]","viability, mean optical density","cortical neurons; 1 μM, addition at 1DIV, 8 days, n=8",0.052 OD
same,"viability, mean optical density","cortical neurons; 2 μM, addition at 1DIV, 8 days, n=8",0.056 OD
same,"viability, mean optical density","cortical neurons; 4 μM, addition at 1DIV, 8 days, n=8",0.058 OD
same,"viability, mean optical density","cortical neurons; 8 μM, addition at 1DIV, 8 days, n=8",0.076 OD
same,"viability, mean optical density","cortical neurons; 16 μM, addition at 1DIV, 8 days, n=8",0.180 OD
same,"viability, mean optical density","cortical neurons; 31.25 μM, addition at 1DIV, 8 days, n=8",0.297 OD
same,"viability, mean optical density","cortical neurons; 62.5 μM, addition at 1DIV, 8 days, n=8",0.338 OD
same,"viability, mean optical density","cortical neurons; 125 μM, addition at 1DIV, 8 days, n=8",0.262 OD
same,viability at 1 µM,cortical neurons; [15],97.8%
same,viability at 2 µM,cortical neurons; [15],102%
same,viability at 4 µM,cortical neurons; [15],107%
same,viability at 8 µM,cortical neurons; [15],140%
same,viability at 16 µM,cortical neurons; [15],331%
same,viability at 31.25 µM,cortical neurons; [15],546%
same,viability at 62.5 µM,cortical neurons; [15],620%
same,viability at 125 µM,cortical neurons; [15],482%
same,maximum neuronal viability (% of untreated control),cortical neurons; [14],620%
